Source: patent US10208033B2, “β-carboline, dihydro-β-carboline and tetrahydro-β-carboline alkaloid derivatives and preparation methods same and use in aspects of preventing and treating plant viruses, fungicides and insecticides” (NANKAI UNIVERSITY, priority 2013, dated 2019)
Where a name gives a salt, the structure may show the parent alone. Read-outs that look alike come from different tables or passages of the source.

How the values were obtained:
[1] = tested on: Bipolaria maydis; assay: organism not typed; assay type: cell-based; conditions: 50 mg/kg
[2] = tested on: Rhizoctonia cereali; assay: Fungicidal (bactericidal) activity in vitro, PDA colony diameter; assay type: cell-based; conditions: 50 mg/kg
[3] = tested on: cotton bollworms; assay: whole plant or invertebrate; conditions: concentration 600 mg/kg
Procedure: Experimental method of cotton bollworms: feed and drug mixing method: measure 3 mL of prepared solution and add it to about 27 g of newly prepared feed, thereby obtaining needed concentration through dilution by 10 times.

[4] = tested on: Cercospora arachidicola; assay: Fungicidal (bactericidal) activity in vitro, PDA colony diameter; assay type: cell-based
[5] = tested on: corn borers; conditions: concentration 600 mg/kg
[6] = tested on: mosquito larvae; assay: whole plant or invertebrate; conditions: 24 h
Procedure: Experimental method of mosquito larvae: culex pipiens pallens, a normal colony raised indoors. Weigh about 5 mg of the compound for test, put it in a penicillin vial, add 5 mL of acetone (or an appropriate solvent), and shake and dissolve it to obtain a 1000 ppm mother solution. Pipette 0.5 mL of the mother solution, add it to a 100 mL beaker filled with 89.9 mL of water, select 10 mosquito larvae at the beginning of the fourth instar, and pour them to a beaker together with 10 mL of feeding solution. The concentration of the drug solution is 5 ppm. […] Use an aqueous solution containing 0.5 mL of test solvent as a blank.

[7] = tested on: Alternaria solani; assay: Fungicidal (bactericidal) activity in vitro, PDA colony diameter; assay type: cell-based; conditions: 50 mg/kg
[8] = tested on: tobacco mosaic virus (TMV); assay: Anti-TMV in vivo therapeutic effect; parameters: species or system tobacco mosaic virus (host Nicotiana tabacum L.cv.Xanthi NN)
[9] = tested on: Fusarium fujikuroi; assay: Fungicidal (bactericidal) activity in vitro, PDA colony diameter; assay type: cell-based
[10] = tested on: Macrophoma kawatsukai; assay: as above; assay type: cell-based; conditions: 50 mg/kg
[11] = tested on: cucumber fusarium wilt; assay: as above; assay type: cell-based; conditions: 50 mg/kg
[12] = tested on: Phytophthora capsici; assay: as above; assay type: cell-based; conditions: 50 mg/kg
[13] = tested on: Fusarium graminearumt; assay: microbe, parasite or virus in culture; assay type: cell-based; conditions: 50 mg/kg
[14] = tested on: Colletotrichum orbiculare; assay: Fungicidal (bactericidal) activity in vitro, PDA colony diameter; assay type: cell-based; conditions: 50 mg/kg
[15] = tested on: armyworms; assay type: in vivo; conditions: concentration 600 mg/kg
[16] = tested on: Sclerotinia scleotiorum; assay: Fungicidal (bactericidal) activity in vitro, PDA colony diameter; assay type: cell-based; conditions: 50 mg/kg
[17] = tested on: tobacco mosaic virus (TMV); assay: Anti-TMV in vivo inactivation; parameters: species or system tobacco mosaic virus (host Nicotiana tabacum L.cv.Xanthi NN)
[18] = tested on: Rhizoctonia solani; assay: Fungicidal (bactericidal) activity in vitro, PDA colony diameter; assay type: cell-based; conditions: 50 mg/kg
[19] = tested on: potato late blight; assay: microbe, parasite or virus in culture; assay type: cell-based
[20] = tested on: tobacco mosaic virus (TMV); assay: Anti-TMV in vivo protective effect; parameters: species or system tobacco mosaic virus (host Nicotiana tabacum L.cv.Xanthi NN)
[21] = tested on: Botrytis cinerea; assay: Fungicidal (bactericidal) activity in vitro, PDA colony diameter; assay type: cell-based; conditions: 50 mg/kg
[22] = tested on: tobacco mosaic virus (TMV); assay: Anti-TMV in vitro effect (half-leaf soaking); assay type: cell-based, tobacco mosaic virus (host Nicotiana tabacum L.cv.Xanthi NN)

| SMILES | Bactericidal activity (%) Bipolaria maydis [1] [%] | Bactericidal activity (%) Rhizoctonia cereali [2] [%] | Cotton bollworm Mortality (%) [3] [%] | Corn borer Mortality (%) [5] [%] | Mosquito larvae Mortality (%) ([6]; concentration 10 mg/kg) | Bactericidal activity (%) Alternaria solani [7] [%] | Relative inhibition rate (%) In vivo therapy ([8]; treatment dose 100 μg/mL) [%] | Relative inhibition rate (%) In vivo therapy ([8]; treatment dose 500 μg/mL) [%] | Bactericidal activity (%) Macrophoma kawatsukai [10] [%] | Bactericidal activity (%) Cucumber fusarium wilt [11] [%] | Bactericidal activity (%) Phytophthora capsici [12] [%] | Bactericidal activity (%) Fusarium graminearumt [13] [%] | Bactericidal activity (%) Colletotrichum orbiculare [14] [%] | Armyworm Mortality (%) [15] [%] | Bactericidal activity (%) Sclerotinia scleotiorum [16] [%] | Relative inhibition rate (%) In vivo inactivation ([17]; treatment dose 100 μg/mL) [%] | Relative inhibition rate (%) In vivo inactivation ([17]; treatment dose 500 μg/mL) [%] | Bactericidal activity (%) Rhizoctonia solani [18] [%] | Relative inhibition rate (%) In vivo protection ([20]; treatment dose 100 μg/mL) [%] | Relative inhibition rate (%) In vivo protection ([20]; treatment dose 500 μg/mL) [%] | further results |
| --- | --- | --- | --- | --- | --- | --- | --- | --- | --- | --- | --- | --- | --- | --- | --- | --- | --- | --- | --- | --- | --- |
| Cc1nccc2c1[nH]c1cc(OC(=O)N(C)C)ccc12 [Ia-6, dimethylcarbamate (1-methylpyridino [3,4-b]indol-7)-ester] | 27.3 | 36.8 | 20 | 35 | 100 | 15.8 | 0 | 15.6 | 26.2 | 23.1 | 9.4 | 38.1 | 35.7 | 45 | 7.8 | 0 | 12 | 46.1 | 0 | 18.7 | Bactericidal activity (%) Cercospora arachidicola ([4]; 50 mg/kg): 53.9%; Mosquito larvae Mortality (%) ([6]; concentration 5 mg/kg): 20%; Bactericidal activity (%) Fusarium fujikuroi ([9]; 50 mg/kg): 21.4%; Bactericidal activity (%) potato late blight [19]: 9.1%; Bactericidal activity (%) Botrytis cinerea [21]: 12.1%; Relative inhibition rate (%) In vitro activity ([22]; treatment dose 100 μg/mL): 0%; Relative inhibition rate (%) In vitro activity ([22]; treatment dose 500 μg/mL): 12.6% |
| CC(=O)Oc1ccc2c(c1)[nH]c1c(C)nccc12 [Ia-7, Acetate (1-methylpyridino [3,4-b]indol-7)-ester] | 21.1 | 62.5 | 30 | 25 | 65 | 33.3 | 0 | 24.1 | 5.9 | 14.3 | 18.2 | 35.7 | 33.3 | 35 | 76.0 | 0 | 20.3 | 0.0 | 0 | 27.2 | Bactericidal activity (%) Cercospora arachidicola [4]: 35.7%; Bactericidal activity (%) Fusarium fujikuroi [9]: 35.7%; Bactericidal activity (%) potato late blight ([19]; 50 mg/kg): 20.0%; Bactericidal activity (%) Botrytis cinerea [21]: 36.4%; Relative inhibition rate (%) In vitro activity ([22]; treatment dose 100 μg/mL): 0%; Relative inhibition rate (%) In vitro activity ([22]; treatment dose 500 μg/mL): 30% |
| CCOC(=O)c1cc2c([nH]c3ccccc32)c(C)n1 [Ia-10, 1-methyl-pyridino [3,4-b] indol-3-ethyl formate] | 36.8 | 78.1 | 40 | 30 | 65 | 61.1 | 0 | 28.8 | 52.9 | 23.8 | 51.5 | 71.4 | 47.6 | 30 | 68.0 | 0 | 26.3 | 39.3 | 0 | 23.7 | Bactericidal activity (%) Cercospora arachidicola ([4]; 50 mg/kg): 35.7%; Bactericidal activity (%) Fusarium fujikuroi ([9]; 50 mg/kg): 35.7%; Bactericidal activity (%) potato late blight ([19]; 50 mg/kg): 35.0%; Bactericidal activity (%) Botrytis cinerea [21]: 13.6%; Relative inhibition rate (%) In vitro activity ([22]; treatment dose 100 μg/mL): 0%; Relative inhibition rate (%) In vitro activity ([22]; treatment dose 500 μg/mL): 33.3% |
| Cc1nc(/C=C/C(=O)O)cc2c1[nH]c1ccccc12 [Ia-14, (E)-3-(1-methyl-pyridino [3,4-b]indol-3)-acrylic acid] | 22.7 | 63.2 | 30 | 20 | 35 | 10.5 | 0 | 21.5 | 47.6 | 23.1 | 18.8 | 14.3 | 25.0 | 25 | 9.8 | 0 | 18.4 | 39.5 | 0 | 28.4 | Bactericidal activity (%) Cercospora arachidicola ([4]; 50 mg/kg): 84.6%; Bactericidal activity (%) Fusarium fujikuroi ([9]; 50 mg/kg): 28.6%; Bactericidal activity (%) potato late blight [19]: 22.7%; Bactericidal activity (%) Botrytis cinerea [21]: 12.1%; Relative inhibition rate (%) In vitro activity ([22]; treatment dose 100 μg/mL): 0%; Relative inhibition rate (%) In vitro activity ([22]; treatment dose 500 μg/mL): 25.8% |
